Among the data in the NIST ThermoML archive (doi:10.1021/je200922s) are viscosity and mass density values, retold here.

± gives the expanded uncertainty stated by the source.

The conditions of the data set: 101.33 kPa, Liquid; for viscosity: Capillary tube (Ostwald / Ubbelohde) method; for mass density: Vibrating tube method.

Regarding `CCn1cc[n+](C)c1.O=S(=O)([N-]S(=O)(=O)C(F)(F)F)C(F)(F)F`, the viscosity (commonly the resistance of a fluid to flow) is, setting by setting: (293.15 K) 40.24 ± 1.6 mPa·s; (298.15 K) 33.36 ± 1.4 mPa·s; (303.15 K) 28.1 ± 1.1 mPa·s; (308.15 K) 23.93 ± 0.98 mPa·s; (313.15 K) 20.66 ± 0.85 mPa·s; (318.15 K) 17.98 ± 0.73 mPa·s. In addition, the viscosity (323.15 K) came to 15.8 ± 0.65 mPa·s. Moreover, the mass density (usually mass per unit of volume) (293.15 K) stood at 1523.28 ± 0.7 kg/m3; the mass density (298.15 K) turned out to be 1518.25 ± 0.69 kg/m3; the mass density (303.15 K) was 1513.23 ± 0.69 kg/m3; the mass density (308.15 K) worked out at 1508.2 ± 0.69 kg/m3; the mass density (313.15 K) was 1503.16 ± 0.68 kg/m3; the mass density (318.15 K) worked out at 1498.19 ± 0.68 kg/m3. For the setting “323.15 K”, the mass density is reported as 1493.33 ± 0.67 kg/m3.

Regarding `CN1CCCC1=O` [N-methylpyrrolidone], the viscosity (293.15 K) is reported as 1.811 ± 0.074 mPa·s; the viscosity (298.15 K) came out at 1.667 ± 0.068 mPa·s; the viscosity (303.15 K) was determined as 1.543 ± 0.063 mPa·s; the viscosity (308.15 K) came out at 1.437 ± 0.059 mPa·s; the viscosity (313.15 K) worked out at 1.343 ± 0.055 mPa·s; the viscosity (318.15 K) is recorded as 1.258 ± 0.051 mPa·s. For the same compound, for the setting “323.15 K”, the viscosity is reported as 1.184 ± 0.048 mPa·s. In addition, the mass density runs as follows: (293.15 K) 1032.31 ± 0.26 kg/m3; (298.15 K) 1027.96 ± 0.25 kg/m3; (303.15 K) 1023.52 ± 0.25 kg/m3; (308.15 K) 1019.06 ± 0.25 kg/m3; (313.15 K) 1014.61 ± 0.24 kg/m3; (318.15 K) 1010.14 ± 0.24 kg/m3. Besides, the mass density (323.15 K) is listed as 1005.68 ± 0.24 kg/m3.

Regarding `CCO` [ethanol], the viscosity came to 1.189 ± 0.048 mPa·s (293.15 K); 1.095 ± 0.044 mPa·s (298.15 K); 1.003 ± 0.041 mPa·s (303.15 K); 0.914 ± 0.037 mPa·s (308.15 K); 0.845 ± 0.034 mPa·s (313.15 K); 0.765 ± 0.031 mPa·s (318.15 K). Moreover, the viscosity (323.15 K) turned out to be 0.704 ± 0.029 mPa·s. The mass density runs as follows: (293.15 K) 789.831 ± 0.12 kg/m3; (298.15 K) 785.535 ± 0.13 kg/m3; (303.15 K) 781.22 ± 0.13 kg/m3; (308.15 K) 776.875 ± 0.13 kg/m3; (313.15 K) 772.48 ± 0.13 kg/m3; (318.15 K) 768.042 ± 0.14 kg/m3. Besides, the mass density (323.15 K) is 762.564 ± 0.14 kg/m3.
